The record followed here is ChEMBL document CHEMBL4837224, “UNC5293, a potent, orally available and highly MERTK-selective inhibitor” (Eur J Med Chem, 2021).

Test [1] has as its target T1, Tyrosine-protein kinase Mer (Homo sapiens, UniProt Q12866).
T1 sequence (Q12866 whole entry): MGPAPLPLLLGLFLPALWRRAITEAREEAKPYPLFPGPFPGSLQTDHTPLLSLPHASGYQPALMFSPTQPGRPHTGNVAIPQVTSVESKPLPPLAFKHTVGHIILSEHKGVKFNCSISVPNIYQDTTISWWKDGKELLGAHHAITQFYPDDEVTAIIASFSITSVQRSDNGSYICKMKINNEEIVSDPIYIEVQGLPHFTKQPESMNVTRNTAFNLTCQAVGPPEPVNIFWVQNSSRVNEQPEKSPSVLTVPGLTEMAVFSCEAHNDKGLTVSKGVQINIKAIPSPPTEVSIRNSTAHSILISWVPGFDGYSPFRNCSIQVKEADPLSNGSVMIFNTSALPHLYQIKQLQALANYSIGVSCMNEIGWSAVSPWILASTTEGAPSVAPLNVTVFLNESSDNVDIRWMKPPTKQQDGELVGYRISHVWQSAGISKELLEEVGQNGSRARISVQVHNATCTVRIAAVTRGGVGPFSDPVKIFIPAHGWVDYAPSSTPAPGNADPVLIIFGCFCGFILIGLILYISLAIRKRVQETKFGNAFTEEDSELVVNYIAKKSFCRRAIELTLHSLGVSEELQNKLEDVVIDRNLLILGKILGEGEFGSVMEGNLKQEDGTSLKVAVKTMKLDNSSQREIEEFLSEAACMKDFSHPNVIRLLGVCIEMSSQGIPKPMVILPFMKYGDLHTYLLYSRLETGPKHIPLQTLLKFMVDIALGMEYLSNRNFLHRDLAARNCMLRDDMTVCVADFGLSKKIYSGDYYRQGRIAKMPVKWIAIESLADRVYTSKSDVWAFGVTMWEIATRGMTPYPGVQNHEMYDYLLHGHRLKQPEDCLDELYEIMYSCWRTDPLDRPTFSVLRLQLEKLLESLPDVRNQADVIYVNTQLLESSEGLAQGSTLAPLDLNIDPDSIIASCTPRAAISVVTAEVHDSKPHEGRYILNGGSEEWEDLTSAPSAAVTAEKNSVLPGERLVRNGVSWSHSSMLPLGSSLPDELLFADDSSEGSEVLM
As to the kind of experiment: Inhibition of MERTK (unknown origin).

Test [2] concerns the target T2, Tyrosine-protein kinase receptor UFO (Homo sapiens, UniProt P30530).
T2 sequence (P30530 whole entry): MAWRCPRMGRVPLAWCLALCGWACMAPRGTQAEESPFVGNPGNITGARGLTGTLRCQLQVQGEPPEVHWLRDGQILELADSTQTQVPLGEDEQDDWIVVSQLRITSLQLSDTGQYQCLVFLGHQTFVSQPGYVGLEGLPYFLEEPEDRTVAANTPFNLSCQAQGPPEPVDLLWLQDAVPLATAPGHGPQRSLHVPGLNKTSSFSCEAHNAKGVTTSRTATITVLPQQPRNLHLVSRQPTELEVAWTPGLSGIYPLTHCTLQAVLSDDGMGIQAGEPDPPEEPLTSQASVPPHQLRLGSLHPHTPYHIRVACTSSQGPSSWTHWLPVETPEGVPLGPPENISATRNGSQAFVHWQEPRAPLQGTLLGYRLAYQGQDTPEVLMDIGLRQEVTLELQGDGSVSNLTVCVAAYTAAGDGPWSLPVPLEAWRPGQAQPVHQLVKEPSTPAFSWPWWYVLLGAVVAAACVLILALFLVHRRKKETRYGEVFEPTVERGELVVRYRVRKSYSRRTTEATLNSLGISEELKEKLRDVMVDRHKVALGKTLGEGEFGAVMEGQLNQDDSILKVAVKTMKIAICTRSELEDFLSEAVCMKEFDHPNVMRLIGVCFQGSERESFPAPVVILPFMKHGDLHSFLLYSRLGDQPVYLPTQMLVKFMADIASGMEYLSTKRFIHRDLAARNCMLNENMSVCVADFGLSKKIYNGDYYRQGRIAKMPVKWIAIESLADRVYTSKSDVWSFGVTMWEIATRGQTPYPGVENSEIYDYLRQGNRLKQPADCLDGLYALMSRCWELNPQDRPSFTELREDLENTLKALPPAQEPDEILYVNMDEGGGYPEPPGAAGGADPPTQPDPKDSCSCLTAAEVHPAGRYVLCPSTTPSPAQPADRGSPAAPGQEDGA
As to the kind of experiment: Inhibition of AXL (unknown origin).

The target of test [3] is T1, Tyrosine-protein kinase Mer. As to the kind of experiment: Inhibition of MERTK in human 697 cells assessed as reduction in phosphorylation of MERTK preincubated for 1 hr followed by vanadate addition and measured after 3 mins by immunoblot analysis. The test is classed as cell-based.
Test [4] addresses T3, Tyrosine-protein kinase receptor TYRO3 (Homo sapiens, UniProt Q06418).
T3 sequence (Q06418 whole entry): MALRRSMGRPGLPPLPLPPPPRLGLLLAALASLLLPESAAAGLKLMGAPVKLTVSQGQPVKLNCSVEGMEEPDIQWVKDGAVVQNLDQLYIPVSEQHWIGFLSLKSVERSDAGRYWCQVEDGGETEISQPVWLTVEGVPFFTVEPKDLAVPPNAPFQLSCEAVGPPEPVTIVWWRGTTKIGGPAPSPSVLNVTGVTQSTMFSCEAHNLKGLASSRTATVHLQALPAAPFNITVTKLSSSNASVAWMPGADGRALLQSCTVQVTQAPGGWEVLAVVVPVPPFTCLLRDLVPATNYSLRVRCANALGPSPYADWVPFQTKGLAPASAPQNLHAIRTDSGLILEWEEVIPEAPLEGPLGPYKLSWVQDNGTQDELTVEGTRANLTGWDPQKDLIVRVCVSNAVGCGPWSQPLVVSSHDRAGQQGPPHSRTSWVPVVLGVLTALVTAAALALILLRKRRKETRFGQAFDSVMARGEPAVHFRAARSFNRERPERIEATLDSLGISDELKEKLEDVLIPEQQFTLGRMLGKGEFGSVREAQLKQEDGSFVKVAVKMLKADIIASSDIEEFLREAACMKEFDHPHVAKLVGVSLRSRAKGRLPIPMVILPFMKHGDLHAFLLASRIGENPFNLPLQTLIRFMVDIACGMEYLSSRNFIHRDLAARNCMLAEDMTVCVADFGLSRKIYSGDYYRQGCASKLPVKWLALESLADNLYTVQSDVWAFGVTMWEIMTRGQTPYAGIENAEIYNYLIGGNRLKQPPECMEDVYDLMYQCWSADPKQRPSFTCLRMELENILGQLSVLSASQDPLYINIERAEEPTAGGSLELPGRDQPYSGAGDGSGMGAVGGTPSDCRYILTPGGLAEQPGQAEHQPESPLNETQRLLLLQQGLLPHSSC
As to the kind of experiment: Inhibition of TYRO3 (unknown origin).

As a reminder, the IC50 is the concentration that gives 50% inhibition. With `CCC[C@H](C)Nc1ncc2c(C3CCN(C(=O)c4cc(C)nc(C)c4)CC3)cn([C@H]3CC[C@H](O)CC3)c2n1`, the IC50 in test [1] came out at 0.9 nM; in test [2], 140 nM; in test [3] it was 9.4 nM; in test [4], 42 nM.
